This note sets out measurements from patent publication US20250035616A1, “Organoid Compositions” (SHIMADZU CORPORATION, priority 2023, published 2025).

Series [1] deals with HYDROX-cultured human liver organoid composition. The procedure: In this Example, the human liver organoid produced in Reference Example 1 was cultured with HYDROX (FIG. 1A) to produce a human liver organoid composition including the HYDROX, and its liver function was identified. The Matrigel-cultured human liver organoid produced in Reference Example 1 was treated with TrypLE Select so that the Matrigel was degraded. The resultant cell cluster was suspended in the medium for a human liver organoid, and was seeded on a HYDROX plate at 300 μL/well, followed by three-dimensional culture (HYDROX culture). The cell cluster was reseeded on a new HYDROX plate every 7 days. The HYDROX plate was produced as described below. In a 48-well adhesive plate, a HYDROX raw material polymer (Psar-PLLA) was mixed with 95% ethanol (Nacalai tesque) at a concentration of 10 mg/mL, and the mixture was warmed at 70° C. for 10 minutes. The dissolved polymer solution was dropped into a culture plate, and was dried for 8 hours or more to produce the human liver organoid composition including the HYDROX. In this Example and the following Examples, the human liver organoid composition including the HYDROX is referred to as “HYDROX-cultured human liver organoid composition.”
(§1) Further, at the initial stage of the development of a new drug, the safety of the drug needs to be accurately evaluated by a hepatotoxicity evaluation test. Accordingly, an investigation was made on the potential of the HYDROX-cultured human liver organoid composition to be applied to the hepatotoxicity evaluation test.

The next series has as its system primary human liver cell. The procedure:
In this Reference Example, 1 lot (lot name: HC4-24, XenoTech) of cultured primary human liver cells were cultured. The cells were rapidly thawed in a shaking water bath at 37° C., and were suspended in OptiTHAW Hepatocyte Isolation Kit (XenoTech) that had been preheated, followed by centrifugation at 100 g and room temperature for 5 minutes. The liver cells were suspended in HCM (Lonza) so that their density became 2.5×10^5 cells/cm^2, followed by seeding on 48-well Corning^RBioCoat™ Collagen I-coated Microplates (Corning). After the cells had been cultured for 48 hours, various tests were performed.
as §1

In the case of `Cc1c(C)c2c(c(C)c1O)CCC(C)(COc1ccc(CC3SC(=O)NC3=O)cc1)O2` (centres unmarked) [Troglitazone], the cell viability result (in series [1]; in the series on primary human liver cell) was “the viability reduced in accordance with the concentration of each of the drugs” in each case. Consider `CC(=O)Nc1ccc(O)cc1` [acetaminophen], for which the cell viability entry in series [1] is on record as “the viability reduced in accordance with the concentration of each of the drugs”. Turning to `CCCCc1oc2ccccc2c1C(=O)c1cc(I)c(OCCN(CC)CC)c(I)c1` [amiodarone], the cell viability result (in series [1]; in the series on primary human liver cell) was “the viability reduced in accordance with the concentration of each of the drugs” throughout.
